Experimental data as given in publication PMC7238120, “Strong and Selective Inhibitory Effects of the Biflavonoid Selamariscina A against CYP2C8 and CYP2C9 Enzyme Activities in Human Liver Microsomes” (Pharmaceutics, 2020).

Target: T1, CYP2A6 (Homo sapiens, UniProt P11509)
T1 construct: incubation mixtures containing pooled human liver microsomes (HLMs, XTreme 200, XenoTech); tissue XenoTech XTreme 200; host or cells: pooled human liver microsomes
T1 sequence (P11509 1-494): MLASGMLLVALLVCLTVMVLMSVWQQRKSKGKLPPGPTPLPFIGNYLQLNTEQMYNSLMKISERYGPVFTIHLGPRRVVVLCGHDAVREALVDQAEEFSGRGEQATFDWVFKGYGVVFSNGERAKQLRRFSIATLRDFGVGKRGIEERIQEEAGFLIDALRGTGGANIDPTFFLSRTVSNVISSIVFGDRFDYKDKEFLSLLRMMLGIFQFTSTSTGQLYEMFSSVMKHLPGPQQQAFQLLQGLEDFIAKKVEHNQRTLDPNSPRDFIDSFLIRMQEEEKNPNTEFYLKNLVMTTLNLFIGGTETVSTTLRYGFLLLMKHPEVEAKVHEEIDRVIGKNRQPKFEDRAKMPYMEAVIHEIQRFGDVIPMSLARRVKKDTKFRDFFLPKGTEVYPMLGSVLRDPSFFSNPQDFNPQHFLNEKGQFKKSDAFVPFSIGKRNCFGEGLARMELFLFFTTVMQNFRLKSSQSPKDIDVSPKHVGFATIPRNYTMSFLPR
Assay: Inhibition of CYP2A6 (coumarin) activity in pooled human liver microsomes, cocktail incubation
Format: in vitro ADME
Details: substrate coumarin 5 µM; pooled HLMs; read-out: IC50, P450 2A6
Description: The inhibitory potential of the five biflavonoids on the metabolism of nine P450 probe substrates was evaluated using previously developed methods with minor modifications. Biflavonoids were dissolved in methanol. The final concentration of methanol in the incubation mixture was 1.0% (v/v). We used these P450 probe substrates: phenacetin for CYP1A2, coumarin for CYP2A6, bupropion for CYP2B6, amodiaquine for CYP2C8, diclofenac for CYP2C9, omeprazole for CYP2C19, dextromethorphan for CYP2D6, chlorzoxazone for CYP2E1 and midazolam for CYP3A (Table 1). The incubation mixtures containing pooled human liver microsomes (HLMs, XTreme 200, XenoTech), P450 probe substrates, and inhibitor (0~20 µM) were pre-incubated at 37 °C for 5 min. The concentration range of the inhibitor varied (0, 0.002, 0.005, 0.02, 0.05, and 0.2 µM for CYP2C8; 0, 0.02, 0.05, 0.2, 0.5, and 2 µM for CYP2C9; 0, 0.5, 2, 5, 10, and 20 µM for other P450 isoforms). After pre-incubation, a reduced nicotinamide adenine dinucleotide phosphate (NADPH) generation system containing 1 unit/ml G6PDH, 1.3 mM β- nicotinamide adenine dinucleotide phosphate (β- NADP^+), 3.3 mM MgCl2, and 3.3 mM G6P was added to initiate a reaction, and further incubated for 10 min at 37 °C. The reaction was stopped by adding 50 μL of ice-cold acetonitrile containing 7 nM trimipramine (internal standard, IS). After centrifugation at 18,000 g (5 min, 4 °C), aliquots of supernatants were analyzed by LC–MS/MS (Shimadzu LCMS 8060 system, Shimadzu, Kyoto, Japan). All microsomal incubations were conducted in triplicate.
All metabolites and the IS were separated on a Kinetex XB-C18 column (100 × 2.10 mm, 2.6 μm, 100 Å; Phenomenex, Torrance, CA, USA) and analyzed using a Shimadzu LCMS 8060 triple-quadrupole mass spectrometer coupled with a Nexera X2 ultra high-performance liquid chromatography system (Shimadzu, Kyoto, Japan) equipped with an electrospray ionization interface. The mobile phase consisted of 0.1% formic acid in water (A) and 0.1% formic acid in acetonitrile (B). The elution condition was set as 8% B (0–0.5 min), 8%→60% B (0.5–5 min), 60% B (5–6 min), 60%→8% B (6–6.1 min) and 8% B (6.1–9 min) for the analysis of metabolites of P450 probe substrates and set as 0%→40% B (0–1 min), 40%→50% B (1–5 min), 50%→0% B (5–5.1 min), and 0% B (5.1–8 min) for the analysis of metabolites of UGT probe substrates. The flow rate was 0.2 mL/min. Electrospray ionization was performed in positive-ion mode at 4000 V or in negative-ion mode at −3500 V. The optimum operating conditions were determined as follows: vaporizer temperature, 300 °C; capillary temperature, 350 °C; collision gas (argon) pressure, 1.5 mTorr. Quantitation was conducted in selected reaction monitoring (SRM) modes with the precursor-to-product ion transition for each metabolite (Table 1 and Table 2).
We analyzed the data with Shimadzu LabSolution LC–MS software. The IC50 values were calculated by WinNonlin software (Pharsight, Mountain View, CA, USA). The type of inhibition and the apparent kinetic parameters for inhibitory activity (Ki) were determined by following several criteria: visual inspection of Dixon plots, Lineweaver–Burk double reciprocal plots, and secondary plots of Lineweaver–Burk plots versus biflavonoid concentrations, the size of the sum of squares of the residuals, Akaike Information Criteria values, the S.E. and 95% confidence interval of the parameter estimates from the nonlinear regression analysis using the WinNonlin software. The models tested included competitive, competitive partial, noncompetitive, noncompetitive partial, uncompetitive, uncompetitive partial, and mixed-type inhibition.

SMILES	IC50 [µM]
O=c1cc(-c2ccc(O)c(-c3c(O)cc4oc(-c5ccc(O)cc5)cc(=O)c4c3O)c2)oc2cc(O)cc(O)c12 [robustaflavone]	11.8
O=C1CC(c2cc(-c3c(O)ccc4c(=O)cc(-c5ccc(O)cc5)oc34)c(O)cc2O)Oc2cc(O)cc(O)c21 (stereo not drawn) [selamariscina A]	11.6
CC(C)(O)c1ccccc1CC[C@@H](SCC1(CC(=O)O)CC1)c1cccc(/C=C/c2ccc3ccc(Cl)cc3n2)c1 [montelukast, reference compound]	> 50
O=c1cc(-c2ccc(O)c(-c3c(O)cc(O)c4c(=O)cc(-c5ccc(O)cc5)oc34)c2)oc2cc(O)cc(O)c12 [amentoflavone]	11.9
O=c1cc(-c2ccc(O)c(-c3c(-c4ccc(O)cc4)oc4cc(O)cc(O)c4c3=O)c2)oc2cc(O)cc(O)c12 [taiwaniaflavone]	10.6
O=c1cc(-c2ccc(O)cc2)oc2c(-c3c(O)cc(O)c4c(=O)cc(-c5ccc(O)cc5)oc34)c(O)cc(O)c12 [cupressuflavone]	> 20
